Measured values from patent publication US12428443B2, “Abiraterone precursor compound and preparation method and use thereof” (SUZHOU AIHE PHARMACEUTICAL TECHNOLOGY CO., LTD., priority 2021, dated 2025).
Read-outs that look alike come from different tables or passages of the source.

Assays:
LNCAP clone FGC = test: CellTiter-Glo chemiluminescent cell viability assay (CTG method), LNCAP; type: cell-based; conditions: LNCAP cells, 72 h; for IC50: read-out: Absolute IC50
Description: (§1) Half-maximal inhibitory concentrations (IC50) of abiraterone acetate and LHY-AB614 for proliferation of LNCAP clone FGC and VCAP were assessed by a CellTiter-Glo® chemiluminescent cell viability assay (namely, a CTG method). Cells in an exponential phase were collected, and live cells were counted. Each cell suspension was adjusted with a corresponding medium to an appropriate concentration. 90 μL of a cell suspension was added to each well of a 96-well plate and cultivated in a 37° C. and 5% CO2 incubator for 24 h. A sample to be tested was dissolved in DMSO to prepare a stock solution with a starting concentration of 50 μM, and the stock solution was 3-fold diluted with a medium to obtain 10× working solutions with 9 concentrations. Cisplatin, as a reference compound, was dissolved in DMSO to prepare a stock solution with a starting concentration of 100 μM, and the stock solution was 3-fold diluted with a medium to obtain 10× working solutions with 9 concentrations. 10 μL of a working solution was added to cells in each well, and then the cells were cultivated in a 37° C. and 5% CO2 incubator for 72 h. The 96-well plate was equilibrated at room temperature for about 30 min, then 50 μL of a CTG solution was added to each well, and the 96-well plate was shaken on a microplate shaker for 2 min to perform cell lysis and placed at room temperature for 20 min to stabilize a fluorescence signal. A fluorescence signal value was determined with an Envision2104 plate reader. On the GraphPad Prism software, a nonlinear regression model was used to plot an S-type dose-response curve and calculate an IC50 value.

VCAP = test: CellTiter-Glo chemiluminescent cell viability assay (CTG method), VCAP; type: cell-based; conditions: VCAP cells, 72 h; for IC50: read-out: Absolute IC50
Description: as §1

[1] = Solubility test in normal saline; type: physicochemical; conditions: saline or isotonic, thermodynamic from solid
Description: 200 mg of LHY-AB614-622 was weighed, and 1 mL of normal saline was added.
2 mg of abiraterone acetate was weighed and dissolved in 1 mL of normal saline, a resulting solution was stirred overnight and then subjected to suction filtration, and a resulting filtrate was subjected to HPLC analysis. Abiraterone acetate was dissolved in methanol to prepare a 0.1 mg/mL solution as a control.

[2] = Comparative study of pharmacokinetic properties in Beagle dogs (oral); type: in vivo
Description: Four healthy Beagle dogs with body weights in a range of 6 kg to 8 kg were selected. The Beagle dogs were fasted for 12 h the day before an experiment, and all were given a low-fat standard meal after administration. The Beagle dogs should not be administered with other drugs two weeks before the experiment and during the experiment. The four Beagle dogs were randomly divided into a group A and a group B (2 dogs in each group). LHY-AB614 was administered orally at a dose of 46.8 mg/kg (32.2 mg/kg based on abiraterone), and abiraterone acetate was administered orally at a dose of 42.3 mg/kg (37.8 mg/kg based on abiraterone). Blank blood was collected in an EDTA-K2 anticoagulation tube before administration, and at 0.25 h, 0.5 h, 1.0 h, 2.0 h, 4.0 h, 6.0 h, 8.0 h, and 24.0 h after administration, 1 mL of blood was collected in EDTA-K2 anticoagulation tubes. After blood was fully mixed with an anticoagulant, each of the anticoagulation tubes was immediately placed in ice and centrifuged as soon as possible to isolate plasma, and the isolated plasma was stored in labeled EP tubes. 50 μL of a plasma sample was taken, 300 μL of a 10 ng/mL carbamazepine-containing acetonitrile solution was added for protein precipitation, and a resulting mixture was vortexed for 5 min and then centrifuged in a centrifuge at 5,500 g for 10 min; and 100 μL of a resulting supernatant was taken, 300 μL of 50%-methanol water was added for dilution, a resulting dilution was vortexed, and 5 μL of a vortexed dilution was injected. In vivo drug concentrations of LHY-AB614, abiraterone acetate, and abiraterone were determined by HPLC-MS/MS.

[3] = cited from earlier work
[4] = Beagle, dog, in vivo, po, 46.8 mg/kg

CC(=O)O[C@H]1CC[C@@]2(C)C(=CC[C@@H]3[C@@H]2CC[C@]2(C)C(c4cccnc4)=CC[C@@H]32)C1 [Abiraterone acetate, abiraterone acetate]
IC50 (LNCAP clone FGC; Homo sapiens, LNCaP-Clone-FGC): 15.5 µM
Max inhibition (LNCAP clone FGC): 78.30%
IC50 (VCAP; Homo sapiens): > 50 µM
Max inhibition (VCAP): 29.43%
solubility [1]: < 100 µg/mL
species detected in vivo after administration ([2]; oral, Beagle dogs, plasma, HPLC-MS/MS): Only abiraterone is detected in vivo
death risk reduced ([3]; combination with prednisone versus placebo and prednisone): 35%
median survival time prolonged versus placebo and prednisone ([3]; combination with prednisone, p<0.0001): 3.9 months
median survival time ([3]; patient treated with a combination of abiraterone acetate and prednisone): 14.8 months

N.N.[Cl][Pt][Cl] [Cisplatin]
Max inhibition (LNCAP clone FGC): 97.49%
IC50 (LNCAP clone FGC): 12.8 µM
Max inhibition (VCAP): 85.02%
IC50 (VCAP): 40.3 µM

CN(C)CCOCCOC(=O)O[C@H]1CC[C@@]2(C)C(=CC[C@@H]3[C@@H]2CC[C@]2(C)C(c4cccnc4)=CC[C@@H]32)C1 [Compound represented by formula I]
IC50 (LNCAP clone FGC; Homo sapiens, LNCaP-Clone-FGC): 3.2 µM
Max inhibition (LNCAP clone FGC): 99.49%
IC50 (VCAP; Homo sapiens): 5.7 µM
Max inhibition (VCAP): 99.31%

CN(C)CCOCCOC(=O)O[C@H]1CC[C@@]2(C)C(=CC[C@@H]3[C@@H]2CC[C@]2(C)C(c4cccnc4)=CC[C@@H]32)C1 [LHY-AB614]
IC50 (LNCAP clone FGC; Homo sapiens, LNCaP-Clone-FGC): 3.2 µM
IC50 (VCAP; Homo sapiens): 5.7 µM
species detected in vivo after administration ([2]; Beagle, dog, in vivo, po): LHY-AB614 and abiraterone both can be detected in vivo
AUC0-inf [2, 4]: 6186 ng·h/mL
AUC0-t [2, 4]: 6116 ng·h/mL
AUC(0-inf) [2, 4]: 1060 ng·h/mL
AUC(0-t) [2, 4]: 908 ng·h/mL
Cls, app [2, 4]: 757
T1/2 [2, 4]: 3.7 h
Tmax [2, 4]: 1.5 h
half-life [2, 4]: 6.8 h
AUC compared with the administration of abiraterone acetate ([2]; dog, in vivo, po): significantly increases
Cmax of abiraterone compared with Cmax of LHY-AB614 ([2]; dog, in vivo, po): much higher
Cmax of abiraterone compared with the administration of abiraterone acetate ([2]; dog, in vivo, po): significantly increases
Tmax compared with the administration of abiraterone acetate ([2]; dog, in vivo, po): does not change
